Source: US9387204B2, “Fused bicyclic imidazoles” (BAYER INTELLECTUAL PROPERTY GmbH, priority 2007, dated 2016)
Where two headings read alike, the source gives them in different places.

How the values were obtained:
OvCAR3 cells = experiment: Cellular proliferation/cytotoxicity assay (Alamar Blue), OvCAR3 cells; format: cell-based; settings: Homo sapiens, OVCAR-3, 72 h, Alamar Blue (Resazurin), read-out: Anti-proliferative/Cytotoxic activity (OvCAR3 cells)
Description: Viabilities are expressed as % values.

A549 cells = experiment: Cellular proliferation/cytotoxicity assay (Alamar Blue), A549 cells; settings: read-out: Anti-proliferative/Cytotoxic activity (A549 cells)
phospho-Akt (Ser473) = experiment: Cellular PI3K/Akt pathway assay (phospho-Akt ELISA); format: cell-based; settings: MCF7 cells, β-Heregulin stimulated, 48 h, phospho-Akt1 (Ser473) ELISA
Description: In order to study the cellular activity of the compounds according to the present invention, an Enzyme Linked Immunosorbent Assay (ELISA)-based assay has been used specific phospho-AKT. The assay is based on a Sandwich ELISA kit (PathScan™ Phospho-Akt1 (Ser473); Cell Signaling, USA; #7160).
The ELISA Kit detects endogenous levels of phosphorylated Akt protein. A phospho-Akt (Ser473) antibody (Cell Signaling, USA; #9271) has been coated onto the microwells. After incubation with cell lysates, the coated antibody captures the phosphorylated Akt protein. Following extensive washing, Akt1 monoclonal antibody (Cell Signaling, USA; #2967) is added to detect the captured phospho-Akt1 protein. HRP-linked anti-mouse antibody (HRP: horseradish peroxidase; Cell Signaling, USA; #7076) is then used to recognize the bound detection antibody. HRP substrate (=3,3′,5,5′-tetramethylbenzidine (TMB); Cell Signaling, USA; #7160) is added to develop colour. The magnitude of optical density for this developed color is proportional to the quantity of phosphorylated Akt protein. MCF7 cells (ATCC HTB-22) are seeded into 96 well fate bottom plates at a density of 10000 cells/well. 24 hours after seeding, the cells are serum starved using low-serum medium (IMEM media including 0.1% charcoal treated FCS (FCS: fetal calf serum)). […] To stimulate Akt phosphorylation, β-Heregulin (20 ng/ml β-HRG) is added in parallel to the compounds. Wells containing unstimulated control cells (no β-Heregulin stimulation) are incubated with or without the diluted compound. Wells containing untreated control cells (no compound) are filled with medium containing 0.5% v:v DMSO and are or are not stimulated with β-Heregulin.
Cells are harvested and lysed with brief sonification in 1× cell lysis buffer (20 mM Tris (pH7.5), 150 mM NaCl, 1 mM ethylene diaminetetraacetate (EDTA), 1 mM ethylene glycolbis(2-aminoethyl)-N,N,N′,N′-tetraacetic acid (EGTA), 1 vol % Triton X-100, 2.5 mM sodium pyrophosphate, 1 mM β-glycerolphosphate, 1 mM Na3VO4, 1 μg/ml leupeptin). The lysate is centrifuged for 10 min. at 4° C. and the supernatant is transferred to a new tube. 100 μl of sample diluent (0.1 vol % Tween-20, 0.1 vol % sodium azide in phosphate buffered saline (PBS)) are added to a microcentrifuge tube and 100 μl of cell lysate are transferred into the tube and vortexed. 100 μl of each diluted cell lysate are added to the appropriate ELISA well, and incubated overnight at 4° C. The plates are washed 4 times with 1× wash buffer (1 vol % tween-20, 0.33 vol % thymol, in PBS). Next 100 μl of detection antibody (Akt1 (2H10) monoclonal detection antibody; Cell Signaling, USA; #2967) are added to each well and incubation continued for 1 h at 37° C. The washing procedure is repeated between each step. 100 μl of secondary antibody (anti-mouse IgG HRP-linked antibody; Cell Signaling, USA; #7076) are added to each well and incubated for 30 min. at 37° C. Than, 100 μl of TMB substrate (0.05% 3,3′,5,5′ tetramethylbenzidine, 0.1% hydrogen peroxide, complex polypeptides in a buffered solution; Cell Signaling, USA; #7160) are added to each well and incubated for 30 min. at 25° C. Finally 100 μl of STOP solution (0.05 vol % α and β unsaturated carbonyl compound) are added to each well and the plate are shaked gently. The absorbance is measured at ? 450 nm (Wallac Victor2; Perkin Elmer, USA) within 30 min. after adding the STOP solution. The analysis of the data is performed using a statistical program (Excel; Microsoft, USA). Preferred compounds show an inhibitory activity towards Akt phosphorylation below 10 μM.

[1] = A549 cells, 72 h, Alamar Blue (Resazurin)

| IC50 (phospho-Akt (Ser473); Homo sapiens) | SMILES | IC50 (A549 cells; Homo sapiens, A549, 72 h) | IC50 (A549 cells; [1]) | further results |
| --- | --- | --- | --- | --- |
| < 1 µM | N#Cc1cccn2c(-c3ccccc3)c(-c3ccc(CN4CCC(c5nnc(-c6ccccc6)[nH]5)CC4)cc3)nc12 [Example 117, 3-phenyl-2-(4-{[4-(5-phenyl-4H-1,2,4-triazol-3-yl)piperidin-1-yl]methyl}phenyl)imidazo[1,2-a]pyridine-8-carbonitrile] | > 10 µM |  |  |
| < 1 µM | Cc1cccc(-c2nnc(C3CCN(Cc4ccc(-c5nc6cc(C#N)ccn6c5-c5ccccc5)cc4)CC3)[nH]2)n1 [Example 61, 2-[4-({4-[5-(6-methylpyridin-2-yl)-4H-1,2,4-triazol-3-yl]piperidin-1-yl}methyl)phenyl]-3-phenylimidazo[1,2-a]pyridine-7-carbonitrile] | > 10 µM |  |  |
| < 1 µM | Cc1cccc(-c2nnc(C3CCN(Cc4ccc(-c5nc6c(C#N)cccn6c5-c5ccccc5)cc4)CC3)[nH]2)n1 [Example 62, 2-[4-({4-[5-(6-methylpyridin-2-yl)-4H-1,2,4-triazol-3-yl]piperidin-1-yl}methyl)phenyl]-3-phenylimidazo[1,2-a]pyridine-8-carbonitrile] | > 10 µM |  |  |
| < 1 µM | N#Cc1cccn2c(-c3ccccc3)c(-c3ccc(CN4CCC(c5nnc(-c6ncccn6)[nH]5)CC4)cc3)nc12 [Example 77, 3-phenyl-2-[4-({4-[5-(pyrimidin-2-yl)-4H-1,2,4-triazol-3-yl]piperidin-1-yl}methyl)phenyl]imidazo[1,2-a]pyridine-8-carbonitrile] | > 10 µM |  |  |
| 1 to 10 µM | c1ccc(-c2nnc(C3CCN(Cc4ccc(-c5nc6sccn6c5-c5ncco5)cc4)CC3)[nH]2)nc1 [Example 43, 5-(1,3-oxazol-2-yl)-6-(4-{[4-(5-pyridin-2-yl-4H-1,2,4-triazol-3-yl)piperidin-1-yl]methyl}phenyl)imidazo[2,1-b][1,3]thiazole] |  |  |  |
| < 1 µM | COC(=O)c1ccn2c(-c3ccccc3)c(-c3ccc(CN4CCC(c5nnc(-c6ccccn6)[nH]5)CC4)cc3)nc2c1 [Example 124, methyl 3-phenyl-2-[4-({4-[5-(pyridin-2-yl)-4H-1,2,4-triazol-3-yl]piperidin-1-yl}methyl)phenyl]imidazo[1,2-a]pyridine-7-carboxylate] | > 10 µM |  |  |

Continued, compound first:

| SMILES | IC50 (phospho-Akt (Ser473); Homo sapiens) | IC50 (A549 cells; Homo sapiens, A549, 72 h) | IC50 (A549 cells; [1]) | further results |
| --- | --- | --- | --- | --- |
| N#Cc1cccn2c(-c3ccccc3)c(-c3ccc(CN4CCC(c5n[nH]c(-c6ccccn6)n5)CC4)cc3)nc12 [Example 5, 3-phenyl-2-(4-{[4-(5-pyridin-2-yl-1,2,4-triazol-3-yl)piperidin-1-yl]methyl}phenyl)imidazo[1,2-a]pyridine-8-carbonitrile] |  | < 10 µM |  | IC50 (OvCAR3 cells): < 10 µM |
| Clc1ccc2nc(-c3ccc(CN4CCC(c5n[nH]c(-c6ccccn6)n5)CC4)cc3)c(-c3ccccc3)n2n1 [Example 31, 6-chloro-3-phenyl-2-(4-{[4-(5-pyridin-2-yl-1,2,4-triazol-3-yl)piperidin-1-yl]methyl}phenyl)imidazo[1,2-b]pyridazine] |  | > 10 µM |  | IC50 (OvCAR3 cells): < 10 µM |
| NC(=O)c1cccn2c(-c3ccccc3)c(-c3ccc(CN4CCC(c5n[nH]c(-c6ccccn6)n5)CC4)cc3)nc12 [Example 40, 3-phenyl-2-(4-{[4-(5-pyridin-2-yl-1,2,4-triazol-3-yl)piperidin-1-yl]methyl}phenyl)imidazo[1,2-a]pyridine-8-carboxamide] |  | > 10 µM |  | IC50 (OvCAR3 cells): < 10 µM |
| c1ccc(-c2c(-c3ccc(CN4CCC(c5nnc(-c6ccc[nH]6)[nH]5)CC4)cc3)nc3ncccn23)cc1 [Example 106, ′3-phenyl-2-[4-({4-[5-(1H-pyrrol-2-yl)-4H-1,2,4-triazol-3-yl]piperidin-1-yl}methyl)phenyl]imidazo[1,2-a]pyrimidine] |  |  | > 10 µM | IC50 (phospho-Akt (Ser473)): < 1 µM |
| COc1nccn2c(-c3ccccc3)c(-c3ccc(CN4CCC(c5nnc(-c6cccc(C)n6)[nH]5)CC4)cc3)nc12 [Example 65, ′8-methoxy-2-[4-({4-[5-(6-methylpyridin-2-yl)-4H-1,2,4-triazol-3-yl]piperidin-1-yl}methyl)phenyl]-3-phenylimidazo[1,2-a]pyrazine] |  |  | < 10 µM | IC50 (phospho-Akt (Ser473)): < 1 µM |
| c1ccc(-c2c(-c3ccc(CN4CCC(c5nnc(-c6ccco6)[nH]5)CC4)cc3)nc3sccn23)cc1 [Example 93, ′6-[4-({4-[5-(2-furyl)-4H-1,2,4-triazol-3-yl]piperidin-1-yl}methyl)phenyl]-5-phenylimidazo[2,1-b][1,3]thiazole] |  |  | < 10 µM | IC50 (phospho-Akt (Ser473)): < 1 µM |
| Cc1cccc(-c2nnc(C3CCN(Cc4ccc(-c5nc6sccn6c5-c5ccccc5)cc4)CC3)[nH]2)n1 [Example 66, ′6-[4-({4-[5-(6-methylpyridin-2-yl)-4H-1,2,4-triazol-3-yl]piperidin-1-yl}methyl)phenyl]-5-phenylimidazo[2,1-b][1,3]thiazole] |  |  | < 10 µM | IC50 (phospho-Akt (Ser473)): < 1 µM |
| c1ccc(-c2c(-c3ccc(CN4CCC(c5n[nH]c(-c6nccs6)n5)CC4)cc3)nc3scnn23)cc1 [Example 88, ′5-phenyl-6-[4-({4-[5-(1,3-thiazol-2-yl)-1H-1,2,4-triazol-3-yl]piperidin-1-yl}methyl)phenyl]imidazo[2,1-b][1,3,4]thiadiazole] |  |  | < 10 µM |  |
| FC(F)(F)c1nn2c(-c3ccccc3)c(-c3ccc(CN4CCC(c5nnc(-c6ccccn6)[nH]5)CC4)cc3)nc2s1 [Example 48, 5-phenyl-6-[4-({4-[5-(pyridin-2-yl)-4H-1,2,4-triazol-3-yl]piperidin-1-yl}methyl)phenyl]-2-(trifluoromethyl)imidazo[2,1-b][1,3,4]thiadiazole] |  | > 10 µM |  |  |
| Cc1cccc(-c2nnc(C3CCN(Cc4ccc(-c5nc6ccccn6c5-c5ccccc5)cc4)CC3)[nH]2)n1 [Example 64, 2-[4-({4-[5-(6-methylpyridin-2-yl)-4H-1,2,4-triazol-3-yl]piperidin-1-yl}methyl)phenyl]-3-phenylimidazo[1,2-a]pyridine] |  | < 10 µM |  |  |
| c1ccc(-c2c(-c3ccc(CN4CCC(c5n[nH]c(-c6ccncc6)n5)CC4)cc3)nc3ncccn23)cc1 [Example 55, ′3-phenyl-2-(4-{[4-(5-pyridin-4-yl-1H-1,2,4-triazol-3-yl)piperidin-1-yl]methyl}phenyl)imidazo[1,2-a]pyrimidine] |  |  | > 10 µM |  |
| c1ccc(-c2c(-c3ccc(CN4CCC(c5cc(-c6ccccn6)[nH]n5)CC4)cc3)nc3sccn23)cc1 [Example 113, ′5-phenyl-6-(4-{[4-(5-pyridin-2-yl-1H-pyrazol-3-yl)piperidin-1-yl]methyl}phenyl)imidazo[2,1-b][1,3]thiazole] |  |  | < 10 µM |  |
| Clc1ccn2c(-c3ccccc3)c(-c3ccc(CN4CCC(c5nnc(-c6ccc[nH]6)[nH]5)CC4)cc3)nc2c1 [Example 107, ′7-chloro-3-phenyl-2-[4-({4-[5-(1H-pyrrol-2-yl)-4H-1,2,4-triazol-3-yl]piperidin-1-yl}methyl)phenyl]imidazo[1,2-a]pyridine] |  |  | < 10 µM |  |
| Cc1ccc(-c2nnc(C3CCN(Cc4ccc(-c5nc6ncccn6c5-c5ccccc5)cc4)CC3)[nH]2)nc1 [Example 70, ′2-[4-({4-[5-(5-methylpyridin-2-yl)-4H-1,2,4-triazol-3-yl]piperidin-1-yl}methyl)phenyl]-3-phenylimidazo[1,2-a]pyrimidine] |  |  | < 10 µM |  |
